7 compounds from PubChem BioAssay (NCI) can be followed below.

Among the test systems are CAKI-1 renal; OVCAR-5 ovarian; UO-31 renal; NCI-H460 lung; UACC-62 melanoma; M14 melanoma; MDA-MB-435; COLO 205 colon; RXF 393 renal; KM12 colon.
Common to all, as to assay: inhibition of tumour cell growth, NCI panel, 48 h

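The compound was tested at five concentrations on cells cultured in 96-well plates, with a 48-hour exposure period. Here, GI50 denotes the concentration required for 50% inhibition of growth. The concentration for full growth arrest is given as TGI.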 A value given as a limit tells only on which side of the number the result lay.

For the compound `Cn1nccc1Nc1nccc(-c2cc3c(s2)C(C)(C)N(CCN2CCOCC2)C3=O)n1`, the GI50 in the assay on CAKI-1 renal is 6.66 µM; in the assay with OVCAR-5 ovarian, 0.498 µM; in the assay on UO-31 renal it was 3.76 µM; in the assay with NCI-H460 lung, 21.4 µM; with UACC-62 melanoma, 0.274 µM; in the assay with M14 melanoma, 0.312 µM. For the same compound, the GI50 is 0.852 µM with MDA-MB-435, 0.159 µM with COLO 205 colon, 4.73 µM in the assay on RXF 393 renal and 7.86 µM in the assay on KM12 colon. Besides, the TGI with CAKI-1 renal is greater than 100 µM; in the assay with OVCAR-5 ovarian it was greater than 100 µM; in the assay with UO-31 renal it was greater than 100 µM; in the assay with NCI-H460 lung it was greater than 100 µM; in the assay with UACC-62 melanoma, greater than 100 µM; in the assay on M14 melanoma it was greater than 37.4 µM. Besides, the TGI with MDA-MB-435 is greater than 100 µM; with COLO 205 colon it was greater than 100 µM; with RXF 393 renal it was greater than 85.3 µM; in the assay on KM12 colon, greater than 100 µM.
On to `C/C=C(\C)C(=O)N[C@H]1CC[C@]2(C)C3CC[C@@]4(C)C(CC[C@@H]4C(C)N(C)C)C3CCC2[C@H]1OC(C)=O` (stereo not given in full), for which the GI50 with CAKI-1 renal is 2.11 µM; with OVCAR-5 ovarian, 2.06 µM; in the assay on UO-31 renal it was 1.24 µM; in the assay on NCI-H460 lung, 0.923 µM; with UACC-62 melanoma, 1.95 µM; with M14 melanoma it was 1.85 µM. Moreover, the GI50 in the assay on MDA-MB-435 was 1.13 µM; in the assay with COLO 205 colon, 1.59 µM; with RXF 393 renal, 1.57 µM; in the assay on KM12 colon it was 2 µM. The TGI is 4.86 µM in the assay on CAKI-1 renal; 5.65 µM in the assay with OVCAR-5 ovarian; 2.54 µM in the assay on UO-31 renal; 2.26 µM in the assay on NCI-H460 lung; 3.74 µM in the assay on UACC-62 melanoma; 3.69 µM in the assay with M14 melanoma. The TGI in the assay on MDA-MB-435 worked out at 2.84 µM; in the assay on COLO 205 colon, 3.06 µM; in the assay with RXF 393 renal, 3.03 µM; with KM12 colon it was 5.15 µM.
On to `COc1ccc(-c2[nH]c3ccccc3c2C=C(C#N)C#N)cc1`, for which the GI50 was 0.625 µM in the assay with CAKI-1 renal; 2.35 µM in the assay on OVCAR-5 ovarian; 0.368 µM in the assay on NCI-H460 lung; 0.347 µM in the assay on UACC-62 melanoma; 0.289 µM in the assay on M14 melanoma; 0.13 µM with MDA-MB-435. The figures for the GI50 in the assay on COLO 205 colon, in the assay on RXF 393 renal and in the assay with KM12 colon were 0.223 µM, 0.511 µM and 0.373 µM, respectively. For the same compound, the TGI in the assay with OVCAR-5 ovarian is greater than 100 µM; in the assay with UO-31 renal it was greater than 100 µM; in the assay with NCI-H460 lung, greater than 100 µM; with MDA-MB-435, 0.469 µM; in the assay with COLO 205 colon it was 0.533 µM; with RXF 393 renal, greater than 100 µM.
For `C1=Cc2ccccc2Nc2ccccc21`, the GI50 in the assay with CAKI-1 renal, in the assay with OVCAR-5 ovarian, in the assay on UO-31 renal, in the assay with NCI-H460 lung, with UACC-62 melanoma and in the assay on M14 melanoma was greater than 100 µM each time. The GI50 in the assay on MDA-MB-435, in the assay with COLO 205 colon, with RXF 393 renal and with KM12 colon was greater than 100 µM each time. Further, the TGI in the assay with CAKI-1 renal, in the assay with OVCAR-5 ovarian, with UO-31 renal, in the assay on NCI-H460 lung, in the assay with UACC-62 melanoma and in the assay with M14 melanoma was greater than 100 µM each time. Further, the TGI with MDA-MB-435, with COLO 205 colon, in the assay on RXF 393 renal and in the assay on KM12 colon was greater than 100 µM in each case.
`C[n+]1c(/C=C\c2ccc(Cl)cc2)ccc2ccccc21`: the GI50 in the assay on CAKI-1 renal is 66.6 µM; in the assay with OVCAR-5 ovarian, 4.36 µM; with UO-31 renal it was 72.5 µM; in the assay on NCI-H460 lung it was 32.7 µM; in the assay with UACC-62 melanoma, 17.7 µM; in the assay with M14 melanoma it was 12.9 µM. Also, the GI50 in the assay with MDA-MB-435 was 21.5 µM; in the assay on COLO 205 colon, 4.28 µM; in the assay with RXF 393 renal, 31.8 µM; with KM12 colon it was 3.6 µM. The TGI was greater than 100 µM in the assay on CAKI-1 renal; greater than 100 µM in the assay with OVCAR-5 ovarian; greater than 100 µM in the assay on UO-31 renal; greater than 100 µM in the assay on NCI-H460 lung; 52 µM in the assay on UACC-62 melanoma; 46.7 µM in the assay on M14 melanoma. For the same compound, the TGI in the assay with MDA-MB-435 was 66.4 µM; in the assay with COLO 205 colon, 24.4 µM; with RXF 393 renal it was 98.3 µM; in the assay with KM12 colon, 15 µM.
For `CCOc1cccc(/C=N/NC(=O)c2ccc(Nc3ccnc(C(F)(F)F)c3)cc2)c1O`, the GI50 in the assay on CAKI-1 renal is 1.36 µM; with OVCAR-5 ovarian, 7.18 µM; in the assay on UO-31 renal, 0.781 µM; in the assay with NCI-H460 lung it was 0.492 µM; in the assay with UACC-62 melanoma, 0.774 µM; with M14 melanoma, 1.19 µM. Moreover, the GI50 was 6.19 µM in the assay on MDA-MB-435, 1.14 µM with COLO 205 colon, 2.97 µM in the assay on RXF 393 renal and 1.62 µM with KM12 colon. The TGI is greater than 100 µM in the assay on CAKI-1 renal; greater than 100 µM with OVCAR-5 ovarian; greater than 25.7 µM in the assay with UO-31 renal; 13.6 µM in the assay on NCI-H460 lung; greater than 61 µM in the assay with UACC-62 melanoma; greater than 24.6 µM with M14 melanoma. For the same compound, the TGI was greater than 100 µM with MDA-MB-435, greater than 38.3 µM in the assay with COLO 205 colon, greater than 49.2 µM in the assay with RXF 393 renal and greater than 58.4 µM in the assay on KM12 colon.
Take `CCOc1c(Br)cc(C2C(C(=O)OC)=CN(C)C=C2C(=O)OC)cc1OC`: the GI50 is 44.3 µM with CAKI-1 renal; greater than 100 µM in the assay on OVCAR-5 ovarian; 28.8 µM with UO-31 renal; 58.1 µM in the assay with NCI-H460 lung; 50.2 µM with UACC-62 melanoma; 64.1 µM with M14 melanoma. For the same compound, the GI50 with MDA-MB-435 is 37.3 µM; in the assay on COLO 205 colon, 99.2 µM; in the assay with RXF 393 renal it was 24.1 µM; in the assay with KM12 colon, 38.6 µM. Further, the TGI with CAKI-1 renal, in the assay on OVCAR-5 ovarian, in the assay with UO-31 renal, with NCI-H460 lung, with UACC-62 melanoma and in the assay with M14 melanoma was greater than 100 µM each time. For the same compound, the TGI in the assay with MDA-MB-435, in the assay with COLO 205 colon, with RXF 393 renal and with KM12 colon was greater than 100 µM throughout.
